Experimental data as given in patent US12624027B2, “Salts and polymorphic forms of 6-chloro-7-(4-(4-chlorobenzyl)piperazin-1-yl)-2-(1,3-dimethyl-1H-pyrazol-4-yl)-3H-imidazo[4,5-b]pyridine” (ELLIPSES PHARMA LTD, priority 2020, dated 2026).
“Also recorded” adds a separate entry of the source. Structures can show the parent of a compound that is named as a salt. Where two headings read alike, the source gives them in different places.

Key:
Type in all cases: physicochemical
[1] = Dynamic vapour sorption (DVS), hygroscopicity; conditions: for form change, hydration or dehydration after DVS (XRPD of recovered solids): after sorption/desorption cycles; for DVS uptake (weight increase): 25° C.
Protocol: Approximately, 10-20 mg of sample was placed into a mesh vapor sorption balance pan and loaded into a DVS Intrinsic dynamic vapour sorption balance by Surface Measurement Systems. The sample was subjected to a ramping profile from 40-90% relative humidity (RH) at 10% increments, maintaining the sample at each step until a stable weight had been achieved (dm/dt 0.004%, minimum step length 30 minutes, maximum step length 500 minutes) at 25° C. After completion of the sorption cycle, the sample was dried using the same procedure to 0% RH and then a second sorption cycle back to 40% RH. Two cycles were performed. The weight change during the sorption/desorption cycles were plotted, allowing for the hygroscopic nature of the sample to be determined. XRPD analysis was then carried out on any solid retained.

[2] = Aqueous solubility of Compound A salts (salt assessment)
Protocol: The mono-mesylate, di-mesylate, mono-hydrochloride, di-hydrochloride and fumarate salts of Compound A were assessed for compliance with the following properties identified by the inventors as being relevant to pharmaceutical suitability:
Aqueous solubility was determined by weighing out ˜3 mg of the salt form into a clean HPLC vial, adding HPLC grade water, shaking, vortexing, and/or sonicating to mix and aid dissolution as necessary. Once fully dissolved (clear solution) solubility is calculated based on the amount of water added. HPLC purity and DVS can be determined using methods described herein or methods known in the art. Processability is based on solubility of the salt form in certain excipients. Automated elemental analysis can be performed with 10 mg of the Compound A salt, using caffeine as a reference material. CHNX and the stoichiometry of the salt to the Compound A is determined. Dissolution was determined across 4 pH values (2.0, 3.8, 5.3, 7.2) using a Sirius T3 module, SOP 2070 and 2071, with 5 to 10 mg of Compound A salt compressed into a tablet disc.

[3] = Stability of the crystalline form in organic solvents and on handling (XRPD)
Protocol: XRPD analysis was carried out on a PANalytical X'pert pro with PIXcel detector (128 channels), scanning the samples between 3 and 35° 2θ. The material was gently ground to release any agglomerates and loaded onto a multi-well plate with Kapton or Mylar polymer film to support the sample. The multi-well plate was then placed into the diffractometer and analyzed using Cu K radiation (α1 λ=1.54060 Å; α2=1.54443 Å; β=1.39225 Å; α1:α2 ratio=0.5) running in transmission mode (step size 0.01300 2θ, step time 18.87 s) using 40 kV/40 mA generator settings. Data were visualized and images generated using the HighScore Plus 4.7 desktop application (PANalytical, 2017).
A slurry of Compound A fumarate lyophile is prepared by adding aliquots of solvent to the lyophile until a mobile slurry was observed. Solvents and volumes can be found in Table 1 below. The slurries are temperature cycled with agitation, between ambient (ca. 25° C.) and 40° C. in 4-hour cycles over 72 hours. Post-temperature cycling the samples were filtered via centrifugation. Isolated solids can be analysed by XRPD.

[4] = Thermodynamic solubility assessment in biological media (FaSSIF, FeSSIF, FaSSGF), HPLC of mother liquors
Protocol: The thermodynamic solubility of Compound A free base, Compound A fumarate Form 1 and Compound A hemi-fumarate Form 3 was assessed in 3 biological media: Fasted State Simulated Intestinal Fluid (FaSSIF); Fed State Simulated Intestinal Fluid (FeSSIF) and Fasted State Simulated Gastric Fluid (FaSSGF).
The following procedure was carried out. Approximately 10 mg of material was weighed into 3×1.5 mL glass vials. 0.02 mL aliquots of appropriate buffer were added to each vial until a final concentration of 10 mg/mL was obtained. The samples were then filtered via centrifugation and the mother liquors analyzed by HPLC.

[5] = Stability of Form 1 on storage (appearance, HPLC, water content, XRPD)
Protocol: The stability of Form 1 was tested for compliance with the following stability acceptance criteria:
Form 1 was prepared as described in Example X above. The following amounts of Form 1 were weighed into 30 ml HDPE Nalgene containers:
Each container was placed into a small grip-seal bag and incubated at the conditions above.
Visual appearance and purity by HPLC were assessed periodically (at 0, 1, 3, 6, 9, 12, and 24 months). Water content was assessed at 0, 1, 6, and 12 months by Karl Fisher titration and TGA. XRPD spectra were taken at 0, 1, 3 and 6 months.

[6] = 1-week stability study of Form 3 (XRPD and HPLC)
Protocol: The stability of Compound A fumarate Form 3 was assessed under ambient and stressed conditions. The following procedure was carried out. Approximately 20 mg of material was added to 3×1.5 mL glass vials. The vials were then stored under the following conditions: • Ambient light and temperature (closed vial) • 40° C./75% RH (open vial) • 80° C. (closed vial)
After 1 week the samples were collected and analyzed by XRPD and HPLC.

[7] = Long term-storage stability of Form 7
[8] = Ambient light and temperature (closed vial)

SMILES: Cc1nn(C)cc1-c1nc2c(N3CCN(Cc4ccc(Cl)cc4)CC3)c(Cl)cnc2[nH]1 [Compound A fumarate, 6-chloro-7-(4-(4-chlorobenzyl)piperazin-1-yl)-2-(1,3-dimethyl-1H-pyrazol-4-yl)-3H-imidazo[4,5-b]pyridine]
- hygroscopicity (in words) ([1]; listed as fumarate salt): unexpectedly low hygroscopicity
- hygroscopicity (in words) ([1]; listed as fumarate salt of Compound A): only slightly hygroscopic
- solubility ([2]; HPLC grade water, water, thermodynamic from solid): 50 to 4000 µg/mL

SMILES: Cc1nn(C)cc1-c1nc2c(N3CCN(Cc4ccc(Cl)cc4)CC3)c(Cl)cnc2[nH]1 [Compound A mesylate, 6-chloro-7-(4-(4-chlorobenzyl)piperazin-1-yl)-2-(1,3-dimethyl-1H-pyrazol-4-yl)-3H-imidazo[4,5-b]pyridine]
- solubility compared to the free base of Compound A ([2]; aqueous): unexpectedly large increase in solubility

SMILES: Cc1nn(C)cc1-c1nc2c(N3CCN(Cc4ccc(Cl)cc4)CC3)c(Cl)cnc2[nH]1 [Form 1, 6-chloro-7-(4-(4-chlorobenzyl)piperazin-1-yl)-2-(1,3-dimethyl-1H-pyrazol-4-yl)-3H-imidazo[4,5-b]pyridine]
- form change, hydration or dehydration after DVS (XRPD of recovered solids) [1]: No evidence of form change
- DVS uptake as equivalents of water ([1]; at 90% RH): 0.07 equivalents of water
- DVS uptake (weight increase) ([1]; at 90% RH): 0.7 wt. %
- change in form upon exposure to organic solvents (XRPD) ([3]; 1-butanol, 1-propanol, 2-ethoxyethanol, acetone, acetonitrile, MEK, THF, 1,1-dimethoxymethane, or DMSO): no change in form
- Concentration (thermodynamic solubility) ([4]; FaSSGF pH 1.6, listed as Compound A fumarate form 1): 3400 µg/mL
- Concentration (thermodynamic solubility) ([4]; FaSSIF pH 6.5, listed as Compound A fumarate form 1): insoluble; also recorded: Below LOD
- Concentration (thermodynamic solubility) ([4]; FeSSIF pH 5.0, listed as Compound A fumarate form 1): 300 µg/mL
- changes in XRPD / form on storage ([5]; 0, 1, 3 and 6 months, ambient and accelerated conditions): no significant changes; also recorded: no changes in XRPD
- levels of impurities (HPLC) ([5]; 5° C., 25° C./60% RH, 40° C./75% RH, 55° C., over 24 months): ≤ 0.6%
- water content ([5]; after 12 months, Karl Fisher titration and TGA): below the limit of quantification
- changes in mass ([5]; storage at 5° C., 25° C./60% RH, 40° C./75% RH, 55° C.): negligible

SMILES: Cc1nn(C)cc1-c1nc2c(N3CCN(Cc4ccc(Cl)cc4)CC3)c(Cl)cnc2[nH]1 [Form 2, 6-chloro-7-(4-(4-chlorobenzyl)piperazin-1-yl)-2-(1,3-dimethyl-1H-pyrazol-4-yl)-3H-imidazo[4,5-b]pyridine]
- change in form (XRPD peaks, spectra, unit cell) ([3]; 1,4-dioxane and lyophilisation conditions): no change in the characteristic XRPD peaks, spectra, or unit cell

SMILES: Cc1nn(C)cc1-c1nc2c(N3CCN(Cc4ccc(Cl)cc4)CC3)c(Cl)cnc2[nH]1 [Form 3, 6-chloro-7-(4-(4-chlorobenzyl)piperazin-1-yl)-2-(1,3-dimethyl-1H-pyrazol-4-yl)-3H-imidazo[4,5-b]pyridine]
- Purity (% area) after storage ([6]; 40° C./75% RH (open vial)): 99.5 % area
- XRPD form after storage ([6]; 40° C./75% RH (open vial)): Form 3
- Purity (% area) after storage ([6]; 80° C. (closed vial)): 99.6 % area
- XRPD form after storage ([6]; 80° C. (closed vial)): Form 3
- Purity (% area) after storage [6, 8]: 99.6 % area
- XRPD form after storage [6, 8]: Form 3
- changes in purity after storage ([6]; all three storage conditions): No changes in purity
- visual changes after storage ([6]; all three storage conditions): No visual changes
- form change, hydration or dehydration after DVS (XRPD of recovered solids) [1]: No evidence of hydration or dehydration
- DVS uptake (weight increase) ([1]; at 90% RH): ca. 0.5 wt. %
- change in form on handling in organic solvents (XRPD) ([3]; dimethoxymethane, 2-MeTHF, water:MeOH, EtOAc, IPA, MEK, MIBK, THF, acetone, acetonitrile): without change in form
- Concentration (thermodynamic solubility) ([4]; FaSSGF pH 1.6, listed as Compound A fumarate form 3): 2000 µg/mL
- Concentration (thermodynamic solubility) ([4]; FaSSIF pH 6.5, listed as Compound A fumarate form 3): <100 µg/mL
- solubility thermodynamic ([4]; FaSSIF, pH 6.5, fassif, thermodynamic from solid, FaSSIF pH 6.5, read-out: Concentration (thermodynamic solubility)): < 100 µg/mL
- Concentration (thermodynamic solubility) ([4]; FeSSIF pH 5.0, listed as Compound A fumarate form 3): <100 µg/mL

SMILES: Cc1nn(C)cc1-c1nc2c(N3CCN(Cc4ccc(Cl)cc4)CC3)c(Cl)cnc2[nH]1 [Form 4, 6-chloro-7-(4-(4-chlorobenzyl)piperazin-1-yl)-2-(1,3-dimethyl-1H-pyrazol-4-yl)-3H-imidazo[4,5-b]pyridine]
- stability in organic solvents (XRPD) ([3]; 1,4-dioxane): stable
- form change on drying ([3]; drying): converts to Form 2

SMILES: Cc1nn(C)cc1-c1nc2c(N3CCN(Cc4ccc(Cl)cc4)CC3)c(Cl)cnc2[nH]1 [Form 5, 6-chloro-7-(4-(4-chlorobenzyl)piperazin-1-yl)-2-(1,3-dimethyl-1H-pyrazol-4-yl)-3H-imidazo[4,5-b]pyridine]
- change in form on handling in organic solvents (XRPD) ([3]; benzyl alcohol): without any change in form

SMILES: Cc1nn(C)cc1-c1nc2c(N3CCN(Cc4ccc(Cl)cc4)CC3)c(Cl)cnc2[nH]1 [Form 6, 6-chloro-7-(4-(4-chlorobenzyl)piperazin-1-yl)-2-(1,3-dimethyl-1H-pyrazol-4-yl)-3H-imidazo[4,5-b]pyridine]
- change in form on handling in solvent (XRPD) ([3]; DMSO): without any change in form

SMILES: Cc1nn(C)cc1-c1nc2c(N3CCN(Cc4ccc(Cl)cc4)CC3)c(Cl)cnc2[nH]1 [Form 7, 6-chloro-7-(4-(4-chlorobenzyl)piperazin-1-yl)-2-(1,3-dimethyl-1H-pyrazol-4-yl)-3H-imidazo[4,5-b]pyridine]
- stability under long term-storage conditions [7]: stable
- hygroscopicity (in words) [1]: only slightly hygroscopic
- change in form on handling in organic solvents (XRPD) ([3]; methanol and TBME): without any change in form

SMILES: Cc1nn(C)cc1-c1nc2c(N3CCN(Cc4ccc(Cl)cc4)CC3)c(Cl)cnc2[nH]1 [Form 8, 6-chloro-7-(4-(4-chlorobenzyl)piperazin-1-yl)-2-(1,3-dimethyl-1H-pyrazol-4-yl)-3H-imidazo[4,5-b]pyridine]
- stability in organic solvents ([3]; benzyl alcohol): stable
